{"source": "PubChem BioAssay AID743351", "about": "(Broad Institute, 2014)", "tested_on": "M. tuberculosis BioA-TetON overexpression strain, growth IC90", "assay": "PubChem AID 743351", "note": "The source made the active and inactive calls. No rule for the calls is given here."}
{"smiles": "CN(C)C(=O)c1ccc(N2CCN(C(=O)c3ccc4c(c3)OCO4)CC2)cc1", "values": [{"measurement": "IC90", "result": "> 50 µM (inactive)"}]}
{"smiles": "CN1c2ccc(-c3ccc(F)cc3)cc2[C@H]2[C@H](CCN2C(=O)Nc2ccc(F)cc2)[C@H]1CO", "values": [{"measurement": "IC90", "result": "> 50 µM (inactive)"}]}
{"smiles": "CN1c2ccc(-c3ccc(F)cc3)cc2[C@H]2[C@H](CCN2C(=O)Cc2cccnc2)[C@H]1CO", "values": [{"measurement": "IC90", "result": "> 50 µM (inactive)"}]}
{"smiles": "CC(=O)c1ccc(N2CC3(CN(C(=O)c4ccc5c(c4)OCO5)C3)C2)cc1", "values": [{"measurement": "IC90", "result": "> 50 µM (inactive)"}]}
{"smiles": "CCC(=O)N1CC[C@@H]2[C@@H](CO)N(C)c3ccc(-c4ccc(F)cc4)cc3[C@@H]21", "values": [{"measurement": "IC90", "result": "> 50 µM (inactive)"}]}
{"smiles": "COC(=O)CCCCCCC(=O)N1CC[C@@H]2[C@@H](CO)N(C)c3ccc(-c4cccc(F)c4)cc3[C@@H]21", "values": [{"measurement": "IC90", "result": "> 50 µM (inactive)"}]}
{"smiles": "CN1c2ccc(-c3cccc(F)c3)cc2[C@H]2[C@H](CCN2C(=O)Cc2cccnc2)[C@H]1CO", "values": [{"measurement": "IC90", "result": "> 50 µM (inactive)"}]}
{"smiles": "CC(C)NC(=O)N1CC[C@@H]2[C@@H](CO)N(C)c3ccc(-c4cccc(F)c4)cc3[C@@H]21", "values": [{"measurement": "IC90", "result": "> 50 µM (inactive)"}]}
{"smiles": "CN1c2ccc(-c3cccc(F)c3)cc2[C@H]2[C@H](CCN2C(=O)c2ccc3c(c2)OCO3)[C@@H]1CO", "values": [{"measurement": "IC90", "result": "> 50 µM (inactive)"}]}
{"smiles": "COc1ccccc1NC(=O)N1CC[C@@H]2[C@@H](CO)N(C)c3ccc(-c4cccc(F)c4)cc3[C@@H]21", "values": [{"measurement": "IC90", "result": "> 50 µM (inactive)"}]}
{"smiles": "CC(=O)c1ccc(NCCNC(=O)c2ccc3c(c2)OCO3)cc1", "values": [{"measurement": "IC90", "result": "> 50 µM (inactive)"}]}
{"smiles": "CC(=O)c1ccc(N2CCN(C(=O)c3ccccc3Cl)CC2)cc1", "values": [{"measurement": "IC90", "result": "> 50 µM (inactive)"}]}
{"smiles": "COc1ccccc1C(=O)N1CCN(c2ccc(C(C)=O)cc2)CC1", "values": [{"measurement": "IC90", "result": "> 50 µM (inactive)"}]}
{"smiles": "COCC(=O)N1CC[C@@H]2[C@@H](CO)N(C)c3ccc(-c4cccc(F)c4)cc3[C@@H]21", "values": [{"measurement": "IC90", "result": "> 50 µM (inactive)"}]}
{"smiles": "CNC(=O)c1ccc(N2CCN(C(=O)c3ccc4c(c3)OCO4)CC2)cc1", "values": [{"measurement": "IC90", "result": "> 50 µM (inactive)"}]}
{"smiles": "CC(=O)c1ccc(N2CCN(C(=O)c3ccc4c(c3)OCO4)[C@H](C)C2)cc1", "values": [{"measurement": "IC90", "result": "> 50 µM (inactive)"}]}
{"smiles": "COc1ccc(NC(=O)N2CC[C@@H]3[C@@H](CO)N(C)c4ccc(-c5cccc(F)c5)cc4[C@@H]32)cc1", "values": [{"measurement": "IC90", "result": "> 50 µM (inactive)"}]}
{"smiles": "CNS(=O)(=O)c1ccc(N2CCN(C(=O)c3ccc4c(c3)OCO4)CC2)cc1", "values": [{"measurement": "IC90", "result": "> 50 µM (inactive)"}]}
{"smiles": "CC(=O)c1ccc(N2CCN(C(=O)c3ccc4c(c3)OCO4)CC2)cc1", "values": [{"measurement": "IC90", "result": "> 50 µM (inactive)"}]}
{"smiles": "CN1c2ccc(-c3cccc(F)c3)cc2[C@H]2[C@H](CCN2C(=O)CCCCCCN)[C@H]1CO", "values": [{"measurement": "IC90", "result": "> 50 µM (inactive)"}]}
{"smiles": "CN1c2ccc(-c3ccc(F)cc3)cc2[C@H]2[C@H](CCN2C(=O)Nc2cc(F)ccc2F)[C@H]1CO", "values": [{"measurement": "IC90", "result": "> 50 µM (inactive)"}]}
{"smiles": "COc1ccccc1NC(=O)N1CC[C@@H]2[C@@H](CO)N(C)c3ccc(-c4ccc(F)cc4)cc3[C@@H]21", "values": [{"measurement": "IC90", "result": "> 50 µM (inactive)"}]}
{"smiles": "COc1ccc(NC(=O)N2CC[C@@H]3[C@@H](CO)N(C)c4ccc(-c5ccc(F)cc5)cc4[C@@H]32)cc1", "values": [{"measurement": "IC90", "result": "> 50 µM (inactive)"}]}
{"smiles": "CC(C)NC(=O)N1CC[C@@H]2[C@@H](CO)N(C)c3ccc(-c4ccc(F)cc4)cc3[C@@H]21", "values": [{"measurement": "IC90", "result": "> 50 µM (inactive)"}]}
{"smiles": "CN1c2ccc(-c3cccc(F)c3)cc2[C@@H]2[C@@H](CCN2C(=O)c2ccc3c(c2)OCO3)[C@H]1CO", "values": [{"measurement": "IC90", "result": "> 50 µM (inactive)"}]}
{"smiles": "CN1c2ccc(-c3cccc(F)c3)cc2[C@H]2[C@H](CCN2C(=O)Nc2ccccc2F)[C@H]1CO", "values": [{"measurement": "IC90", "result": "> 50 µM (inactive)"}]}
{"smiles": "CC(=O)c1ccc(N2CCN(C(=O)c3ccccc3F)CC2)cc1", "values": [{"measurement": "IC90", "result": "> 50 µM (inactive)"}]}
{"smiles": "CCCCCCCC(=O)N1CC[C@@H]2[C@@H](CO)N(C)c3ccc(-c4cccc(F)c4)cc3[C@@H]21", "values": [{"measurement": "IC90", "result": "> 50 µM (inactive)"}]}
{"smiles": "COc1cccc(NC(=O)N2CC[C@@H]3[C@@H](CO)N(C)c4ccc(-c5cccc(F)c5)cc4[C@@H]32)c1", "values": [{"measurement": "IC90", "result": "> 50 µM (inactive)"}]}
{"smiles": "CN1c2ccc(-c3cccc(F)c3)cc2[C@@H]2[C@@H](CCN2C(=O)c2ccc3c(c2)OCO3)[C@@H]1CO", "values": [{"measurement": "IC90", "result": "> 50 µM (inactive)"}]}
{"smiles": "CN1c2ccc(-c3cccc(F)c3)cc2[C@H]2[C@H](CCN2C(=O)CCCCCCC(=O)O)[C@H]1CO", "values": [{"measurement": "IC90", "result": "> 50 µM (inactive)"}]}
{"smiles": "CN1c2ccc(-c3ccc(F)cc3)cc2[C@H]2[C@H](CCN2C(=O)Cc2ccccn2)[C@H]1CO", "values": [{"measurement": "IC90", "result": "> 50 µM (inactive)"}]}
{"smiles": "CN1c2ccc(-c3cccc(F)c3)cc2[C@H]2[C@H](CCN2C(=O)Cc2ccccc2)[C@H]1CO", "values": [{"measurement": "IC90", "result": "> 50 µM (inactive)"}]}
{"smiles": "CCCNC(=O)N1CC[C@@H]2[C@@H](CO)N(C)c3ccc(-c4ccc(F)cc4)cc3[C@@H]21", "values": [{"measurement": "IC90", "result": "> 50 µM (inactive)"}]}
